The results in this text go back to ChEMBL document CHEMBL1122843, “Opioid receptor interactions and conformations of the 6 alpha and 6 beta epimers of oxymorphamine. Solid-state conformation of 6 alpha-oxymorphamine” (J Med Chem, 1985).

Assay [1] concerns the target Mu-type opioid receptor (Rattus norvegicus, UniProt P33535). The experiment in a line: Compound was evaluated for binding affinity against Opioid receptor mu 1 in rat brain membranes using [125I]-Tyr-D-Ala-Gly-NMePhe-Met. Type of assay: cell membranes. The settings on record: read-out: I50.
Assay [2] addresses Delta-type opioid receptor (Rattus norvegicus, UniProt P33533). Nature of the assay: Compound was evaluated for binding affinity against Opioid receptor delta 1 in rat brain membranes using [125I]-D-Ala2-Leu5-enkephalin. It is filed as cell membranes. The settings on record: read-out: I50.

Sequence of Mu-type opioid receptor (P33535 whole entry): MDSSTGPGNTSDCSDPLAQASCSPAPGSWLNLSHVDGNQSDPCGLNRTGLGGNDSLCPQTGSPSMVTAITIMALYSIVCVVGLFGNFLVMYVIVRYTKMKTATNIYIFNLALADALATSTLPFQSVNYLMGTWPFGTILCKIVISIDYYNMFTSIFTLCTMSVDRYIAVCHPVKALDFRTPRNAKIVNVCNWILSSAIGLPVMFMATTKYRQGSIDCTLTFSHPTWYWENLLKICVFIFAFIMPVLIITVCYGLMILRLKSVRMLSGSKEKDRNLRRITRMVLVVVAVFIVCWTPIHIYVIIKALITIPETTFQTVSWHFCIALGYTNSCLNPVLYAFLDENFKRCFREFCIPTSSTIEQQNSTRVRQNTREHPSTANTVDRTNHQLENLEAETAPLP
Sequence of Delta-type opioid receptor (P33533 whole entry): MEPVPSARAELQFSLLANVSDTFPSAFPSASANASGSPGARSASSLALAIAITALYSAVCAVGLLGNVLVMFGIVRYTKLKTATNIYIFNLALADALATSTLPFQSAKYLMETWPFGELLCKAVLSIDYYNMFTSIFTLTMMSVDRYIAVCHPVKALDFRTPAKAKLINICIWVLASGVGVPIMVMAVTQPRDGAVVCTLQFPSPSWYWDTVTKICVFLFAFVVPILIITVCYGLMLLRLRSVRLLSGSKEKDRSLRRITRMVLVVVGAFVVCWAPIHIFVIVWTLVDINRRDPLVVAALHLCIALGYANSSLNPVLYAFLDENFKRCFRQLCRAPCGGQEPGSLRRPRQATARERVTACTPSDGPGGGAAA

On to `CN1CC[C@]23c4c5ccc(O)c4O[C@H]2[C@@H](N)CC[C@@]3(O)[C@H]1C5`, for which the IC50 in assay [1] was 13 nM; in assay [2] it was 250 nM.
On the same counts, the results for `CN1CC[C@]23c4c5ccc(O)c4O[C@H]2[C@H](N)CC[C@@]3(O)[C@H]1C5` are 9 nM and 110 nM.
